Experimental findings from US5705498A, “Piperidine derivatives as 5-HT4 receptor antagonists” (SmithKline Beecham plc., priority 1992, dated 1998) are described below.

This assay has as its target T1, 5-HT4 receptor (Cavia porcellus, UniProt O70528).
T1 construct: Longitudinal muscle-myenteric plexus preparations, approximately 3 cm long, are obtained from the distal colon region; from tissue; host or cells: guinea-pig distal colon, longitudinal muscle-myenteric plexus preparation
The experiment in a line: Guinea pig colon longitudinal muscle-myenteric plexus, antagonism of 5-HT-evoked contraction. As to conditions: guinea-pig distal colon; contraction evoked by 5-HT; methiothepin 10^-7 M and granisetron 10^-6 M present; read-out: pIC50 (-log concentration of antagonist which reduces the contraction by 50%) (converted). How it is done:
Male guinea-pigs, weighing 250-400 g are used. Longitudinal muscle-myenteric plexus preparations, approximately 3 cm long, are obtained from the distal colon region. These are suspended under a 0.5 g load in isolated tissue baths containing Krebs solution bubbled with 5% CO2 in O2 and maintained at 37° C. In all experiments, the Krebs solution also contains methiothepin 10^-7 M and granisetron 10^-6 M to block effects at 5-HT1, 5-HT2 and 5-HT3 receptors.
After construction of a simple concentration-response curve with 5-HT, using 30 s contact times and a 15 min dosing cycle, a concentration of 5-HT is selected so as to obtain a contraction of the muscle approximately 40-70% maximum(10^-9 M approx). The tissue is then alternately dosed every 15 min with this concentration of 5-HT and then with an approximately equi-effective concentration of the nicotine receptor stimulant, dimethylphenylpiperazinium (DMPP). After obtaining consistent responses to both 5-HT and DMPP, increasing concentrations of a putative 5-HT4 receptor antagonist are then added to the bathing solution. The effects of this compound are then determined as a percentage reduction of the contractions evoked by 5-HT or by DMPP. […] A compound which reduces the response to 5-HT but not to DMPP is believed to act as a 5-HT4 receptor antagonist.

Bounds are passed on as bounds.

T1 sequence (O70528 whole entry): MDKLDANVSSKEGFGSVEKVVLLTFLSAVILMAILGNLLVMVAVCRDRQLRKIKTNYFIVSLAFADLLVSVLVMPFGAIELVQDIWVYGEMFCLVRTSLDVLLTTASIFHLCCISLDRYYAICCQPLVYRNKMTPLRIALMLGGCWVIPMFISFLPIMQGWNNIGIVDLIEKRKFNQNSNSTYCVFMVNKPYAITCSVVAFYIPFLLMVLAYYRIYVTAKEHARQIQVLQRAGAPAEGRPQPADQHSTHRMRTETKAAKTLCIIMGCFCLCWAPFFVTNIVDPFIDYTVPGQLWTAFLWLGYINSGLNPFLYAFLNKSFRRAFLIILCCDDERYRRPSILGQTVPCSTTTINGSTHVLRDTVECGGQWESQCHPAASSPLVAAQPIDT

As for `Nc1c(Cl)cc(C(=O)OCC2CCN(Cc3cccnc3)CC2)c2c1OCCO2` [Example E1, 5-(1-(3-Pyridylmethyl)-4-piperidinyl)methyl-8-amino-7-chloro-1,4-benzodioxancarboxylate], the IC50 was below 1 nM.
